The EC50 is the midpoint of the concentration-response curve.

Molecules are shown by their SMILES. A value given as a limit tells only on which side of the number the result lay.

35 compounds from EP4682145A1, “BENZOHETEROCYCLIC COMPOUND, AND PREPARATION METHOD THEREFOR AND USE THEREOF” (Cascade Pharmaceuticals, Inc., priority 2023, dated 2024) can be followed below.

The target of the assay is T1, human FFAR1 (GPR40) (Homo sapiens, UniProt O14842).
T1 construct: Flag; expressed in transfected cells; host or cells: HEK293T
As to the kind of experiment: NFAT-RE-based reporter gene activity assay (Dual-Glo luciferase) for GPR40 agonistic activity in co-transfected HEK293T cells. It is filed as cell-based. The conditions noted are these: 4-hour treatment; for Efficacy (%): class symbols. The text has this: The pcDNA3.0-flag-FFAR1 (GPR40) plasmid was constructed using conventional molecular cloning methods. The main steps were as follows: The full-length cDNA sequence of human FFAR1 (GPR40) (NM_005303.3) was inserted into the HindIII and XbaI restriction sites of the pcDNA3.0 vector via PCR technology, resulting in the pcDNA3.0-flag-FFAR1 (GPR40) plasmid; pGL4.30 [luc2P NFAT-RE] (# E8481) and pRL-TK (#E2241) plasmids were both purchased from Promega; the plasmids were transformed into DH5α E. coli using the CaCl2 method, further cultured and amplified, and then purified using a plasmid extraction kit (TIANGEN, # DP117) to obtain the corresponding plasmid DNA.
HEK293T cells were seeded in a 96-well plate at a density of 1 × 10^4/well one day prior to plasmid transfection. Cell transfection was performed according to the instructions of the transfection reagent FuGENE® HD (Promega, # E2311). The main steps were as follows: Taking one well as an example, plasmids pcDNA3.0-flag-FFAR1 (GPR40), pGL4.30 [luc2P NFAT-RE], and pRL-TK were added at ratios of 50 ng, 50 ng, and 5 ng, respectively, into 10 µL of Opti-MEM™ I medium (Gibco, #11058021) and mixed thoroughly; then, 0.2 µL of FuGENE® HD was added, mixed thoroughly, and allowed to stand at room temperature for 5 minutes; finally, this 10 µL mixture was added to the cell well containing 100 µL of culture medium. 24 hours after co-transfection, the compounds were serially diluted at half-logarithmic intervals with 1 µM as the highest concentration, resulting in 10 concentration gradients, which were added to the cell culture medium for a 4-hour treatment.
After 4 hours of compound treatment, the cells were assayed according to the instructions of the Dual-Glo® Luciferase Assay System (Promega, # E2940). The main steps were as follows: 50 µL of culture medium was aspirated from each well and discarded, followed by the addition of 50 µL of Dual-Glo® Luciferase Reagent, and the mixture was shaken at room temperature for 10 minutes. Then, 80 µL of the lysate reaction solution was transferred to a white opaque optiPlate-96 well plate, and the luminescence signal of Firefly luciferase (Firefly-Luc) was measured using an MD i3x multifunctional microplate reader. Subsequently, 40 µL of Dual-Glo® Stop & Glo® Reagent was added, and the mixture was shaken at room temperature for 10 minutes. Finally, the luminescence signal of Renilla luciferase (Renilla-Luc) was measured using the MD i3x multifunctional microplate reader. The ratio of Firefly-Luc/Renilla-Luc was used as the compound's agonistic activity toward GPR40, and normalization was performed using the ratio of the solvent DMSO group. A dose-response curve was fitted using a four-parameter model with GraphPad Prism 8.0 software to calculate the EC50 value.

T1 sequence (O14842 whole entry): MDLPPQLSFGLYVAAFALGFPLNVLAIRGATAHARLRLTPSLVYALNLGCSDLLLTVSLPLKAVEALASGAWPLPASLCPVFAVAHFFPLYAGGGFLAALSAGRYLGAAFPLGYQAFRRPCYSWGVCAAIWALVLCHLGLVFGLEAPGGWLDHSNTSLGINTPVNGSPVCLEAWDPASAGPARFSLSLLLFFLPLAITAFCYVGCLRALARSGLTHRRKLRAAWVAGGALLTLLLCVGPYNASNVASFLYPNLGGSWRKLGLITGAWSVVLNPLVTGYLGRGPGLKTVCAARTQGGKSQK

For the compound `COc1ccc(F)c(N2CCC(c3oc4cc(C(CC(=O)O)C5CC5)ccc4c3-c3cnn(-c4ccccc4)c3)CC2)c1` (stereo not shown) [Compound 99], the 50% effective concentration (EC50) was in the range of 100 to 500 nM and the “Efficacy (%)” value is reported as “†† (150 ≥ Efficacy (%) > 100)”.

Take `COc1cccc(N2CCC(c3oc4cc(C(CC(=O)O)C5CC5)ccc4c3-c3cnc(C)s3)CC2)c1` (stereo not shown) [Compound 101]: the EC50 fell in the range of 100 to 500 nM and the “Efficacy (%)” value is reported as “†† (150 ≥ Efficacy (%) > 100)”.

As for `COc1cccc(N2CCC(c3oc4cc([C@@H](CC(=O)O)C5CC5)ccc4c3-c3cnc(C(C)C)s3)CC2)c1` [Compound 102], the EC50 was 10 to 100 nM and the “Efficacy (%)” value is listed as “†† (150 ≥ Efficacy (%) > 100)”.

As for `COc1cccc(N2CCC(c3oc4cc([C@@H](CC(=O)O)C5CC5)ccc4c3-c3cnc(C(C)(C)C)s3)CC2)c1` [Compound 103], the EC50 lay within 10 to 100 nM and the “Efficacy (%)” value is “†† (150 ≥ Efficacy (%) > 100)”.

As to `COc1cccc(N2CCC(c3oc4cc(C(CC(=O)O)C5CC5)ccc4c3-c3cn(C(C)C)cn3)CC2)c1` (stereo not shown) [Compound 104], the EC50 is more than 500 nM and the “Efficacy (%)” value was “†† (150 ≥ Efficacy (%) > 100)”.

With `COc1cccc(N2CCC(c3oc4cc([C@@H](CC(=O)O)C5CC5)ccc4c3-c3csc(OC)n3)CC2)c1` [Compound 105], the EC50 is 10 to 100 nM and the “Efficacy (%)” value is “†† (150 ≥ Efficacy (%) > 100)”.

`COc1cccc(N2CCC(c3oc4cc(C(CC(=O)O)C5CC5)ccc4c3-c3csc(C(C)C)n3)CC2)c1` (stereo not shown) [Compound 106]: the EC50 fell in the range of 10 to 100 nM and the “Efficacy (%)” value was “†† (150 ≥ Efficacy (%) > 100)”.

For `COc1cccc(N2CCC(c3oc4cc([C@@H](CC(=O)O)C5CC5)ccc4c3-c3csc(C(C)C)n3)CC2)c1` [Compound 107], the half-maximal effective concentration (EC50) lay in the range of 100 to 500 nM and the “Efficacy (%)” value is “††† (Efficacy (%) > 150)”.

In the case of `COc1cccc(N2CCC(c3oc4cc([C@@H](CC(=O)O)C5CC5)ccc4c3-c3csc(C(C)(C)C)n3)CC2)c1` [Compound 108], the EC50 lay in the range of 10 to 100 nM and the “Efficacy (%)” value is given as “††† (Efficacy (%) > 150)”.

Regarding `COc1cccc(N2CCC(c3oc4cc([C@@H](CC(=O)O)C5CC5)ccc4c3-c3nc(C(C)C)cs3)CC2)c1` [Compound 109], the EC50 was 100 to 500 nM and the “Efficacy (%)” value was “†† (150 ≥ Efficacy (%) > 100)”.

For the compound `COc1cccc(N2CCC(c3oc4cc([C@@H](CC(=O)O)C5CC5)ccc4c3-c3nc(C(C)(C)C)cs3)CC2)c1` [Compound 110], the EC50 is 10 to 100 nM and the “Efficacy (%)” value is listed as “†† (150 ≥ Efficacy (%) > 100)”.

In the case of `COc1cccc(N2CCC(c3oc4cc(C(CC(=O)O)C5CC5)ccc4c3-c3ncc(C(C)C)s3)CC2)c1` (stereo not shown) [Compound 111], the EC50 lay in the range of 10 to 100 nM and the “Efficacy (%)” value is reported as “††† (Efficacy (%) > 150)”.

For the compound `COc1cccc(N2CCC(c3oc4cc([C@@H](CC(=O)O)C5CC5)ccc4c3-c3ncc(C(C)C)s3)CC2)c1` [Compound 112], the EC50 is 10 to 100 nM and the “Efficacy (%)” value was “†† (150 ≥ Efficacy (%) > 100)”.

Consider `COc1cccc(N2CCC(c3oc4cc([C@@H](CC(=O)O)C5CC5)ccc4c3-c3ncc(C(C)(C)C)s3)CC2)c1` [Compound 113], for which the EC50 is not above 10 nM and the “Efficacy (%)” value is “†† (150 ≥ Efficacy (%) > 100)”.

Turning to `COc1cccc(N2CCC(c3oc4cc(C(CC(=O)O)C5CC5)ccc4c3-c3cc(C(C)(C)C)on3)CC2)c1` (stereo not shown) [Compound 114], the EC50 was 10 to 100 nM and the “Efficacy (%)” value is on record as “†† (150 ≥ Efficacy (%) > 100)”.

For `COc1cccc(N2CCC(c3oc4cc(C(CC(=O)O)C5CC5)ccc4c3-c3cc(C(C)(C)C)no3)CC2)c1` (stereo not shown) [Compound 115], the EC50 was not above 10 nM and the “Efficacy (%)” value is “†† (150 ≥ Efficacy (%) > 100)”.

On to `COc1cccc(N2CCC(c3oc4cc([C@@H](CC(=O)O)C5CC5)ccc4c3-c3cc(C(C)(C)C)no3)CC2)c1` [Compound 116], for which the EC50 was not above 10 nM and the “Efficacy (%)” value was “†† (150 ≥ Efficacy (%) > 100)”.

On to `COc1cccc(N2CCC(c3oc4cc([C@@H](CC(=O)O)C5CC5)ccc4c3-c3nc(C(C)(C)C)co3)CC2)c1` [Compound 117], for which the EC50 was 10 to 100 nM and the “Efficacy (%)” value is listed as “†† (150 ≥ Efficacy (%) > 100)”.

As for `COc1cccc(N2CCC(c3oc4cc(C(CC(=O)O)C5CC5)ccc4c3-c3nnc(C(C)(C)C)s3)CC2)c1` (stereo not shown) [Compound 118], the EC50 lay within 10 to 100 nM and the “Efficacy (%)” value is given as “†† (150 ≥ Efficacy (%) > 100)”.

Regarding `COc1cccc(N2CCC(c3oc4cc(C(CC(=O)O)C5CC5)ccc4c3-c3cn(C)nn3)CC2)c1` (stereo not shown) [Compound 120], the EC50 is more than 500 nM and the “Efficacy (%)” value is listed as “†† (150 ≥ Efficacy (%) > 100)”.

As for `COc1cccc(N2CCC(c3oc4cc(C(CC(=O)O)C5CC5)ccc4c3-c3ncn(C)n3)CC2)c1` (stereo not shown) [Compound 121], the EC50 was more than 500 nM and the “Efficacy (%)” value is “†† (150 ≥ Efficacy (%) > 100)”.

On to `COc1cccc(N2CCC(c3oc4cc(C(CC(=O)O)C5CC5)ccc4c3-c3noc(C(C)(C)C)n3)CC2)c1` (stereo not shown) [Compound 122], for which the EC50 was 10 to 100 nM and the “Efficacy (%)” value is “†† (150 ≥ Efficacy (%) > 100)”.

As for `COc1cccc(N2CCC(c3oc4cc(C(CC(=O)O)C5CC5)ccc4c3-c3nnc(C(C)C)o3)CC2)c1` (stereo not shown) [Compound 123], the EC50 was in the range of 100 to 500 nM and the “Efficacy (%)” value is on record as “†† (150 ≥ Efficacy (%) > 100)”.

With `COc1cccc(N2CCC(c3oc4cc(C(CC(=O)O)C5CC5)ccc4c3-c3nnc(C(C)(C)C)o3)CC2)c1` (stereo not shown) [Compound 124], the EC50 was in the range of 10 to 100 nM and the “Efficacy (%)” value was “†† (150 ≥ Efficacy (%) > 100)”.

Turning to `COc1cccc(N2CCC(c3oc4cc([C@@H](CC(=O)O)C5CC5)ccc4c3-c3nnc(C(C)(C)C)o3)CC2)c1` [Compound 125], the EC50 lay in the range of 10 to 100 nM and the “Efficacy (%)” value is reported as “†† (150 ≥ Efficacy (%) > 100)”.

Consider `COc1cccc(N2CCC(c3oc4cc(C(CC(=O)O)C5CC5)ccc4c3-c3nnc(C(C)(C)C(F)(F)F)o3)CC2)c1` (stereo not shown) [Compound 126], for which the EC50 is 10 to 100 nM and the “Efficacy (%)” value is on record as “†† (150 ≥ Efficacy (%) > 100)”.

Consider `COc1cccc(N2CCC(c3oc4cc(C(CC(=O)O)C5CC5)ccc4c3-c3cnn(C(C)(C)C#N)c3)CC2)c1` (stereo not shown) [Compound 127], for which the EC50 was in the range of 100 to 500 nM and the “Efficacy (%)” value was “††† (Efficacy (%) > 150)”.

On to `CCC(C)(C)c1nnc(-c2c(C3CCN(c4cccc(OC)c4)CC3)oc3cc(C(CC(=O)O)C4CC4)ccc23)o1` (stereo not shown) [Compound 128], for which the EC50 is 10 to 100 nM and the “Efficacy (%)” value is “†† (150 ≥ Efficacy (%) > 100)”.

On to `CCCC(C)(C)c1nnc(-c2c(C3CCN(c4cccc(OC)c4)CC3)oc3cc(C(CC(=O)O)C4CC4)ccc23)o1` (stereo not shown) [Compound 129], for which the EC50 lay in the range of 10 to 100 nM and the “Efficacy (%)” value was “†† (150 ≥ Efficacy (%) > 100)”.

Take `CCCCC(C)(C)c1nnc(-c2c(C3CCN(c4cccc(OC)c4)CC3)oc3cc(C(CC(=O)O)C4CC4)ccc23)o1` (stereo not shown) [Compound 130]: the EC50 is 10 to 100 nM and the “Efficacy (%)” value is recorded as “†† (150 ≥ Efficacy (%) > 100)”.

As to `CCCCCC(C)(C)c1nnc(-c2c(C3CCN(c4cccc(OC)c4)CC3)oc3cc(C(CC(=O)O)C4CC4)ccc23)o1` (stereo not shown) [Compound 131], the EC50 was in the range of 10 to 100 nM and the “Efficacy (%)” value is recorded as “†† (150 ≥ Efficacy (%) > 100)”.

For the compound `COC(=O)C(C)(C)n1cc(-c2c(C3CCN(c4cccc(OC)c4)CC3)oc3cc(C(CC(=O)O)C4CC4)ccc23)cn1` (stereo not shown) [Compound 132], the EC50 lay within 100 to 500 nM and the “Efficacy (%)” value is recorded as “††† (Efficacy (%) > 150)”.

As to `COc1cccc(N2CCC(c3oc4cc(C(CC(=O)O)C5CC5)ccc4c3-c3nnc(-c4ccccc4)o3)CC2)c1` (stereo not shown) [Compound 133], the EC50 was in the range of 100 to 500 nM and the “Efficacy (%)” value was “† (100 ≥ Efficacy (%) > 50)”.

For the compound `COc1cccc(N2CCC(c3oc4cc(C(CC(=O)O)C5CC5)ccc4c3-c3nnc(C4(C)CC4)o3)CC2)c1` (stereo not shown) [Compound 134], the EC50 was 100 to 500 nM and the “Efficacy (%)” value is recorded as “† (100 ≥ Efficacy (%) > 50)”.

As to `COc1cccc(N2CCC(c3oc4cc(C(CC(=O)O)C5CC5)ccc4c3-c3nnc(C(C)(C)CC4CCCCC4)o3)CC2)c1` (stereo not shown) [Compound 135], the EC50 was 10 to 100 nM and the “Efficacy (%)” value is “†† (150 ≥ Efficacy (%) > 100)”.
